According to patent US7084268B1, “Carbapenem compound crystals and interjection preparations” (Eisai Co., Ltd., priority 1999, dated 2006):
“And” between values parts separate entries of the source, which are not always exact repeats. Equal values may be shown once. Where a name gives a salt, the structure may show the parent alone.

Columns and labels:
Format in all cases: physicochemical
[1] = Storage of crystals in bottles without caps at various relative humidity, with or without oxygen absorbent; settings: for water content (hygroscopicity): 25° C., 2 weeks, listed as monohydrate crystals, monohydrochloride monohydrate
Procedure: The novel carbapenem hydrochloride crystals were weighed in 25 mL wide-mouthed glass bottles (30 mg/bottle), and in the bottles without caps, the monohydrate was stored for 1 week at 40° C. at a relative humidity of 0%, 19.2%, 53% and 75%, and the trihydrate was stored for 2 weeks at 25° C. at a relative humidity of 11%, 33%, 51%, 75% and 93%. Then, the crystals were measured for their color difference (ΔE), water content, powdery X-ray diffraction pattern, and content of residual carbapenem. The monohydrate was also examined in the presence or absence of an oxygen absorbent (trade name: Ageless, produced by Mitsubishi Gas Chemical Co., Ltd.) during storage at each relative humidity. The oxygen absorbent makes oxygen-free conditions under which the preparation is placed.

[2] = Color difference after degasification of vial at various pressures and replacement by nitrogen; settings: 60° C., n = 6
Procedure: As the monohydrate, the powdery charged preparations for injection of the novel carbapenem crystals (25 mg/vial) obtained by degasification of the air in the vial at 100, 10, 1, 0.1 and 0.01 hPa (hectopascal) respectively and subsequent replacement by nitrogen according to the method in Example 2-3 (replacement by nitrogen) were stored at 60° C. for 1 or 4 weeks (N=6) and then measured for their color difference (ΔE). The oxygen concentrations in the preparations in vials degasified at 100, 10, 1, 0.1, 0.01 hPa (hectopascal) were measured by an oxygen analyzer (RO-101, Iizima Kogyo). As the trihydrate, the powdery charged preparations of the novel carbapenem hydrochloride crystals (25 mg/vial) obtained in the method in Example 1-9 (replacement by nitrogen) were degasified in the same manner, stored at 80° C. for 1 week (N=6) and then measured for their color difference (ΔE). As the control, the powdery charged preparation of the novel carbapenem hydrochloride crystals (25 mg/vial) subjected to neither degasification nor replacement by nitrogen was used.

[3] = Storage of crystals in bottles without caps at various relative humidity, with or without oxygen absorbent; settings: 25° C., 2 weeks, listed as monohydrate crystals, monohydrochloride monohydrate
[4] = Effect of degasification of the air in a vial and/or replacement by nitrogen (storage of powdery charged preparations); settings: for HPLC impurity, mean / content of residual carbapenem compound, mean: N=3
Procedure: As the monohydrate crystals, the powdery charged preparation of the novel carbapenem hydrochloride crystals (25 mg/vial) obtained in the method in Example 2-3 (replacement by nitrogen), the powdery charged preparation (25 mg/vial) subjected to replacement by oxygen in place of replacement by nitrogen in Example 2-3, and the powdery charged preparation (25 mg/vial) not subjected to replacement in Example 2-2 were stored at 60° C. for 5 days (N=3) and then measured for their color difference (ΔE), water content, powdery x-ray diffraction pattern, content of residual carbapenem and HPLC impurities. As the trihydrate crystals, the powdery charged preparation of the novel carbapenem hydrochloride crystals (25 mg/vial) obtained by the method (replacement by nitrogen) in Example 1-9 and the powdery charged preparation (25 mg/vial) not subjected to replacement in Example 1-8 were stored at 40° C. for 1 month and then measured for their color difference (ΔE), water content and content of residual carbapenem. The color difference was evaluated by a color difference meter (ZE-200, Nippondenso Co., Ltd.); the water content by a Karl-Fisher moisture meter (CA-05, Mitsubishi Kagaku Kogyo); the powdery X-ray diffraction under the method and conditions in Example 1-1 or 2-1; and the content of residual carbapenem and HPLC impurities by high performance liquid chromatography (Shimadzu Corporation). The color difference (ΔE) is a parameter indicative of a change in the color of the outward appearance of crystals, and its higher value indicates a greater coloration change than at an initial stage (just after production).

[5] = 40° C., 1 week, relative humidity 0%, oxygen absorbent absence
[6] = 40° C., 1 week, relative humidity 0%, oxygen absorbent presence
[7] = 40° C., 1 week, relative humidity 19.2%, oxygen absorbent absence
[8] = 40° C., 1 week, relative humidity 19.2%, oxygen absorbent presence
[9] = 40° C., 1 week, relative humidity 53%, oxygen absorbent absence
[10] = 40° C., 1 week, relative humidity 53%, oxygen absorbent presence
[11] = 40° C., 1 week, relative humidity 75%, oxygen absorbent absence
[12] = 40° C., 1 week, relative humidity 75%, oxygen absorbent presence
[13] = monohydrate crystals, initial stage
[14] = 25 mg/vial, control (air), no replacement, stored 60° C. for 5 days
[15] = 25 mg/vial, control (air), no replacement, stored 60° C. for 5 days, monohydrochloride monohydrate
[16] = 25 mg/vial, gas for replacement nitrogen, stored 60° C. for 5 days
[17] = 25 mg/vial, gas for replacement nitrogen, stored 60° C. for 5 days, monohydrochloride monohydrate
[18] = 25 mg/vial, gas for replacement oxygen, stored 60° C. for 5 days
[19] = 25 mg/vial, gas for replacement oxygen, stored 60° C. for 5 days, monohydrochloride monohydrate
[20] = monohydrate powdery charged preparation, initial stage

C[C@@H](O)[C@H]1C(=O)N2C(C(=O)O)=C(S[C@@H]3CN[C@H]([C@H](O)[C@@H]4CCNC4)C3)[C@H](C)[C@H]12 [monohydrate, (+)-(1R,5S,6S)-6-[(R)-1-Hydroxyethyl]-1-methyl-2-[(2S,4S)-2-[(3R)-pyrrolidine-3-yl-(R)-hydroxymethyl]pyrrolidine-4-yl]thio-1-carbapen-2-em-3-carboxylic acid monohydrochloride monohydrate]
water content (hygroscopicity) ([1]; relative humidity 33%): 5.6% | water content (hygroscopicity) ([1]; relative humidity 51%): 5.9% | color difference (ΔE) [1, 5]: 1.87 | content of residual carbapenem compound [1, 5]: 101.1% | powdery X-ray diffraction pattern [1, 5]: no change | water content [1, 5]: 5.08% | color difference (ΔE) [1, 6]: 2.95 | content of residual carbapenem compound [1, 6]: 100.3% | powdery X-ray diffraction pattern [1, 6]: no change | water content [1, 6]: 5.31% | color difference (ΔE) [1, 7]: 5.01 | content of residual carbapenem compound [1, 7]: 99.9% | powdery X-ray diffraction pattern [1, 7]: no change | water content [1, 7]: 6.18% | color difference (ΔE) [1, 8]: 3.97 | content of residual carbapenem compound [1, 8]: 100.5% | powdery X-ray diffraction pattern [1, 8]: no change | water content [1, 8]: 5.72% | color difference (ΔE) [1, 9]: 6.28 | content of residual carbapenem compound [1, 9]: 100.6% | powdery X-ray diffraction pattern [1, 9]: no change | water content [1, 9]: 6.17% | color difference (ΔE) [1, 10]: 5.85 | content of residual carbapenem compound [1, 10]: 102.0% | powdery X-ray diffraction pattern [1, 10]: no change | water content [1, 10]: 6.29% | color difference (ΔE) [1, 11]: 35.98 | content of residual carbapenem compound [1, 11]: 99.8% | powdery X-ray diffraction pattern [1, 11]: no change | water content [1, 11]: 6.60% | color difference (ΔE) [1, 12]: 4.56 | content of residual carbapenem compound [1, 12]: 100.8% | powdery X-ray diffraction pattern [1, 12]: no change | water content [1, 12]: 6.43% | HPLC impurity [1, 13]: 0.93% | water content [1, 13]: 5.49% | color difference (ΔE) ([2]; control: neither degasification nor replacement by nitrogen, 1 week): 7.37 | color difference (ΔE) ([2]; control: neither degasification nor replacement by nitrogen, 4 weeks): 14.94 | color difference (ΔE) ([2]; vial degasified at 0.01 hPa (oxygen concentration 0.24 ± 0.03%), replaced by nitrogen, 1 week): 3.11 | color difference (ΔE) ([2]; vial degasified at 0.01 hPa (oxygen concentration 0.24 ± 0.03%), replaced by nitrogen, 4 weeks): 4.91 | color difference (ΔE) ([2]; vial degasified at 0.1 hPa (oxygen concentration 0.21 ± 0.01%), replaced by nitrogen, 1 week): 2.28 | color difference (ΔE) ([2]; vial degasified at 0.1 hPa (oxygen concentration 0.21 ± 0.01%), replaced by nitrogen, 4 weeks): 4.98 | color difference (ΔE) ([2]; vial degasified at 1 hPa (oxygen concentration 0.24 ± 0.04%), replaced by nitrogen, 1 week): 2.62 | color difference (ΔE) ([2]; vial degasified at 1 hPa (oxygen concentration 0.24 ± 0.04%), replaced by nitrogen, 4 weeks): 4.51 | color difference (ΔE) ([2]; vial degasified at 10 hPa (oxygen concentration 0.29 ± 0.08%), replaced by nitrogen, 1 week): 2.40 | color difference (ΔE) ([2]; vial degasified at 10 hPa (oxygen concentration 0.29 ± 0.08%), replaced by nitrogen, 4 weeks): 5.69 | color difference (ΔE) ([2]; vial degasified at 100 hPa (oxygen concentration 3.01 ± 1.12%), replaced by nitrogen, 1 week): 2.85 | color difference (ΔE) ([2]; vial degasified at 100 hPa (oxygen concentration 3.01 ± 1.12%), replaced by nitrogen, 4 weeks): 8.02 | water content (hygroscopicity) ([3]; relative humidity 11%): 5.0% | water content (hygroscopicity) ([3]; relative humidity 75%): 6.2% | water content (hygroscopicity) ([3]; relative humidity 93%): 8.4% | powdery X-ray diffraction pattern [4, 14]: no change | HPLC impurity, mean [4, 14]: 0.63% | content of residual carbapenem compound, mean [4, 14]: 98.40% | HPLC impurity [4, 15]: 0.62% and 0.64% | color difference (ΔE) [4, 15]: 10.48 and 11.21 and 10.41 | content of residual carbapenem compound [4, 15]: 98.6% and 98.1% | water content [4, 15]: 5.87% and 5.93% | powdery X-ray diffraction pattern [4, 16]: no change | HPLC impurity, mean [4, 16]: 0.63% | content of residual carbapenem compound, mean [4, 16]: 98.40% | HPLC impurity [4, 17]: 0.63% and 0.64% | color difference (ΔE) [4, 17]: 4.23 and 4.57 and 5.23 | water content [4, 17]: 5.80% and 5.78% and 5.77% | powdery X-ray diffraction pattern [4, 18]: no change | HPLC impurity, mean [4, 18]: 0.64% | content of residual carbapenem compound, mean [4, 18]: 97.80% | HPLC impurity [4, 19]: 0.63% and 0.64% | color difference (ΔE) [4, 19]: 12.7 and 12.14 and 11.46 | content of residual carbapenem compound [4, 19]: 97.5% and 98.1% and 97.8% | water content [4, 19]: 5.78% and 5.77% and 5.75% | HPLC impurity [4, 20]: 1.03% | water content [4, 20]: 5.99%
